Results: the supplement of paper PMC10307832

Tests used:
Assay in all cases: relative viability (nuclei count vs DMSO), 5 days (fraction); higher = more cells survive
[1] = tested on: BEN
Summary of the method: (§1)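 Lung cancer cell lines were pin-tool dosed in 1536-well plates on the day after seeding, with either a lone drug or a fixed anchor-drug dose plus five library-drug doses (not always all listed) in √10 steps. Nuclei were counted on 4× images after 5 days. Relative viability is the ratio of treated-well to vehicle-well nuclei counts, with each value a median of duplicate plates.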

[2] = tested on: NCI-H1792
Summary of the method: as §1

[3] = tested on: NCI-H647
Summary of the method: as §1

[4] = tested on: EKVX
Summary of the method: as §1

[5] = tested on: NCI-H661
Summary of the method: as §1

[6] = tested on: NCI-H596
Summary of the method: as §1

[7] = tested on: NCI-H1734
Summary of the method: as §1

[8] = tested on: NCI-H2405
Summary of the method: as §1

[9] = tested on: NCI-H1437
Summary of the method: as §1

[10] = tested on: HCC-366
Summary of the method: as §1

[11] = tested on: HCC-44
Summary of the method: as §1

[12] = tested on: HARA
Summary of the method: as §1

[13] = tested on: NCI-H1355
Summary of the method: as §1

[14] = tested on: LOU-NH91
Summary of the method: as §1

[15] = tested on: SK-LU-1
Summary of the method: as §1

[16] = tested on: LC-2-ad
Summary of the method: as §1

[17] = tested on: HCC-827
Summary of the method: as §1

[18] = tested on: NCI-H2009
Summary of the method: as §1

[19] = tested on: NCI-H2228
Summary of the method: as §1

[20] = tested on: NCI-H2087
Summary of the method: as §1

Clc1ccc(Nc2nnc(Cc3ccncc3)c3ccccc23)cc1 [Vatalanib] + CC(C)C[C@H](NC(=O)[C@H](Cc1ccccc1)NC(=O)c1cnccn1)B(O)O [Bortezomib] (partner 0.002 µM)
relative viability ([1]; first compound 0.04 µM): 0.851 | relative viability ([1]; first compound 0.1265 µM): 0.682 | relative viability ([1]; first compound 0.4 µM): 0.906 | relative viability ([1]; first compound 1.265 µM): 0.665 | relative viability ([1]; first compound 4 µM): 0.806 | relative viability ([2]; first compound 0.04 µM): 0.946 | relative viability ([2]; first compound 0.1265 µM): 0.9 | relative viability ([2]; first compound 0.4 µM): 0.915 | relative viability ([2]; first compound 1.265 µM): 0.921 | relative viability ([2]; first compound 4 µM): 0.972 | relative viability ([3]; first compound 0.04 µM): 1.05 | relative viability ([3]; first compound 0.1265 µM): 0.971 | relative viability ([3]; first compound 0.4 µM): 1.07 | relative viability ([3]; first compound 1.265 µM): 0.943 | relative viability ([3]; first compound 4 µM): 1.06 | relative viability ([4]; first compound 0.04 µM): 1.1 | relative viability ([4]; first compound 0.1265 µM): 0.647 | relative viability ([4]; first compound 0.4 µM): 1.22 | relative viability ([4]; first compound 1.265 µM): 0.984 | relative viability ([4]; first compound 4 µM): 0.848 | relative viability ([5]; first compound 0.04 µM): 0.801 | relative viability ([5]; first compound 0.1265 µM): 0.71 | relative viability ([5]; first compound 0.4 µM): 0.882 | relative viability ([5]; first compound 1.265 µM): 0.764 | relative viability ([5]; first compound 4 µM): 0.816 | relative viability ([6]; first compound 0.04 µM): 1.2 | relative viability ([6]; first compound 0.1265 µM): 1 | relative viability ([6]; first compound 0.4 µM): 1.01 | relative viability ([6]; first compound 1.265 µM): 1.11 | relative viability ([6]; first compound 4 µM): 1.01 | relative viability ([7]; first compound 0.04 µM): 1.02 | relative viability ([7]; first compound 0.1265 µM): 1.04 | relative viability ([7]; first compound 0.4 µM): 1.15 | relative viability ([7]; first compound 1.265 µM): 0.827 | relative viability ([7]; first compound 4 µM): 0.893 | relative viability ([8]; first compound 0.04 µM): 1 | relative viability ([8]; first compound 0.1265 µM): 1.03 | relative viability ([8]; first compound 0.4 µM): 0.76 | relative viability ([8]; first compound 1.265 µM): 0.957 | relative viability ([8]; first compound 4 µM): 0.939 | relative viability ([9]; first compound 0.04 µM): 0.57 | relative viability ([9]; first compound 0.1265 µM): 0.577 | relative viability ([9]; first compound 0.4 µM): 0.507 | relative viability ([9]; first compound 1.265 µM): 0.445 | relative viability ([9]; first compound 4 µM): 0.495 | relative viability ([10]; first compound 0.04 µM): 1.09 | relative viability ([10]; first compound 0.1265 µM): 0.924 | relative viability ([10]; first compound 0.4 µM): 1.03 | relative viability ([10]; first compound 1.265 µM): 1.06 | relative viability ([10]; first compound 4 µM): 1.05 | relative viability ([11]; first compound 0.04 µM): 0.92 | relative viability ([11]; first compound 0.1265 µM): 0.855 | relative viability ([11]; first compound 0.4 µM): 0.903 | relative viability ([11]; first compound 1.265 µM): 0.828 | relative viability ([11]; first compound 4 µM): 0.857 | relative viability ([12]; first compound 0.04 µM): 0.71 | relative viability ([12]; first compound 0.1265 µM): 0.953 | relative viability ([12]; first compound 0.4 µM): 1.23 | relative viability ([12]; first compound 1.265 µM): 1.12 | relative viability ([12]; first compound 4 µM): 1.06 | relative viability ([13]; first compound 0.04 µM): 1.18 | relative viability ([13]; first compound 0.1265 µM): 1.22 | relative viability ([13]; first compound 0.4 µM): 1.21 | relative viability ([13]; first compound 1.265 µM): 1.09 | relative viability ([13]; first compound 4 µM): 1.1 | relative viability ([14]; first compound 0.04 µM): 0.491 | relative viability ([14]; first compound 0.1265 µM): 0.43 | relative viability ([14]; first compound 0.4 µM): 0.464 | relative viability ([14]; first compound 1.265 µM): 0.493 | relative viability ([14]; first compound 4 µM): 0.468 | relative viability ([15]; first compound 0.04 µM): 1.25 | relative viability ([15]; first compound 0.1265 µM): 0.981 | relative viability ([15]; first compound 1.265 µM): 1.19 | relative viability ([15]; first compound 4 µM): 1.14 | relative viability ([16]; first compound 0.04 µM): 0.987 | relative viability ([16]; first compound 0.1265 µM): 1.01 | relative viability ([16]; first compound 0.4 µM): 1.17 | relative viability ([16]; first compound 1.265 µM): 1 | relative viability ([16]; first compound 4 µM): 0.952 | relative viability ([17]; first compound 0.04 µM): 1.04 | relative viability ([17]; first compound 0.1265 µM): 0.877 | relative viability ([17]; first compound 0.4 µM): 1.05 | relative viability ([17]; first compound 1.265 µM): 1.12 | relative viability ([17]; first compound 4 µM): 1.03 | relative viability ([18]; first compound 0.04 µM): 1.19 | relative viability ([18]; first compound 0.1265 µM): 0.891 | relative viability ([18]; first compound 0.4 µM): 1.14 | relative viability ([18]; first compound 1.265 µM): 0.949 | relative viability ([18]; first compound 4 µM): 0.984 | relative viability ([19]; first compound 0.04 µM): 0.865 | relative viability ([19]; first compound 0.1265 µM): 0.803 | relative viability ([19]; first compound 0.4 µM): 0.94 | relative viability ([19]; first compound 1.265 µM): 0.951 | relative viability ([19]; first compound 4 µM): 1.11 | relative viability ([20]; first compound 0.04 µM): 1.05 | relative viability ([20]; first compound 0.1265 µM): 0.744 | relative viability ([20]; first compound 0.4 µM): 0.92 | relative viability ([20]; first compound 1.265 µM): 0.917 | relative viability ([20]; first compound 4 µM): 0.753
